This experiment deals with WT BMDCs. As to the kind of experiment: BMDC maturation with AICAR plus adenosine kinase inhibitor or nucleoside transporter inhibitor. Format: cell-based, mice. The settings on record: CD40, CD80, CD86, I-A^b by FACS. As for the experimental part:
FIG. 15 depicts the combined effect of AICAR and a nucleoside transporter or an adenosine kinase inhibitor on BMDC maturation. WT BMDCs were stimulated with LPS and 1 mM AICAR in the presence or absence of 0.1 mM IODO or 1 μM DPY. The number of CD11c-gated CD40, CD80, CD86 and I-A^b positive cells was measured by FACS. Bars represent mean±SD from three independent experiments. BMDCs were generated as previously described (Wang et al. (2005) IMMUNOL. LETT. 98:123-130). Briefly, bone marrow was flushed from the femurs and tibias of naive mice (6 to 8-week-old WT or AMPKα1 KO mice). The red blood cells were lysed using Red Blood Cell Lysing Buffer (Sigma). Approximately 2×10^6 cells were cultured in complete medium (RPMI 1640 medium containing 10% FBS, […], 10 mM HEPES [pH 7.4], 2 mM glutamine, 100 U/ml penicillin, and […]) including 10 ng/ml GM-CSF (Pepro Tech, London, England). Fresh media was added to the cells on day 4 of culture, and nonadherent cells and loosely adherent cells were collected as immature DCs on day 7. Immature DCs were stimulated with 100 ng/ml LPS (Salmonella typhimurium; Sigma) for 24 hours to obtain mature DCs. In some experiments, AICAR was added to the culture. […] To further study AICAR's suppressive effect, an adenosine kinase inhibitor (IODO) was used to inhibit AICAR conversion to ZMP. […]

With `OCCN(CCO)c1nc(N2CCCCC2)c2nc(N(CCO)CCO)nc(N3CCCCC3)c2n1` [DPY], the “Effect on AICAR-mediated suppression of co-stimulatory molecule expression” value (1 μM DPY with LPS and 1 mM AICAR) is reported as “reversed”.

In the case of `Nc1ncnc2c1c(I)cn2[C@@H]1O[C@H](CO)[C@@H](O)[C@H]1O` [IODO], under “0.1 mM IODO with LPS and 1 mM AICAR”, the “Effect on downregulation of co-stimulatory molecule expression by AICAR” value was “did not affect”.

Values taken from patent publication US10842806B2, “Methods for treating ocular inflammatory disorders” (Massachusetts Eye and Ear Infirmary, priority 2011, dated 2020).
